Results reported in patent US20110207694A1, “MAMMALIAN HYPOTHALAMIC NUTRIENT MODULATION OF GLUCOSE METABOLISM” (priority 2005, published 2011).
Entries after “also recorded” stand apart in the source; their conditions may differ.

Assays:
rats = assay: Food intake after central (ICV) glucose or lactate; assay type: in vivo, rat
conscious rats [1] = assay: ICV glucose or lactate infusion with pancreatic basal insulin clamp: plasma glucose and liver glucose production; assay type: in vivo, rat
Source text: We hypothesize that the hypothalamic sensing of glucose-derived pyruvate is a novel regulator of endogenous glucose production (GP). […] We propose that an increase in neuronal pyruvate levels is a hypothalamic signal of nutrient availability.
Long chain fatty acids in the brain decrease glucose production (GP) by the liver via activation of hypothalamus ATP-sensitive (KATP) channels. Here we tested whether (A) direct administration of glucose in the third cerebral ventricle can alter glucose production by the liver, and (B) whether this effect requires its metabolism in the TCA cycle.

conscious rats [2] = assay: Circulating lactate infusion with central LDH inhibitor or KATP blocker: glucose kinetics during pancreatic clamps; conditions: pancreatic clamps
male Sprague-Dawley rats = assay: ICV infusion: plasma triglycerides and metabolites under basal and pancreatic clamp conditions; assay type: in vivo, rat
Source text: Animal preparation. We studied 10-week-old male Sprague-Dawley rats. Rats underwent stereotaxic surgery to indwell single catheters in the third cerebral ventricle {intracerebroventricular (ICV)(Obici et al., 2001) or bilateral catheters into the mediobasal hypothalamus (Lam et al., 2005c). One week later, we placed indwelling catheters in the internal jugular vein and carotid artery for sampling and infusion during the in vivo experiments (Obici et al., 2001). Recovery from surgery was monitored by measuring daily food intake and weight gain for 4-5 days after surgery.
(§1) Infusion protocols. The in vivo infusion experiments lasted a total of 360 min, and the experiments were carried out in rats that had their food removed ˜5 h before the experiments. Thus, at the time of the experiment, the rats are in post-absorptive state since their stomach should be completely emptied by 5 h fasting. […] This ICV glucose protocol physiologically elevate hypothalamic glucose concentration by ˜70% as previously described (Lam et al., 2005b) and is similar to that induced by a doubling of the circulating glucose levels (Lam et al., 2005b). During the ICV infusions, we monitored the plasma metabolite levels under pre-infused (0 min), basal (180-240 min) and pancreatic clamp (300-360 min) conditions. […] A basal insulin-pancreatic clamp was performed in the final 2 h (240-360 min) of the study as previously described (Lam et al., 2005b). In brief, a continuous infusion of insulin (1 mU/kg.min) and somatostatin (3 μg/kg.min) was administered, and a variable infusion of a 25% glucose solution was started and periodically adjusted to clamp and maintain the plasma glucose concentration at ˜8 mM. […] To examine the time-dependent effects of ICY glucose on plasma triglycerides, ICY (5 μl/h) 2 mM D-glucose or mannitol was administrated for 210 min and plasma triglyceride levels were monitored at 0, 20, 60, 120, 180, 210 min. […] Plasma triglycerides were monitored under basal, pancreatic clamp and tyloxapol-treated conditions. At the end of the infusion experiments, rats were anesthetized and tissue samples were freeze-clamped in situ with aluminum tongs pre-cooled in liquid nitrogen. All tissue samples were stored at −80° C. for subsequent analysis.
Biochemical analyses. Plasma glucose concentrations were measured by the glucose oxidase method (Glucose Analyzer II, Beckman Instruments, Inc., Fullerton, Calif.). […] FFA concentrations were determined by an enzyme assay in accordance with the manufacturer's specifications (Waco Pure Chemical Industries. Osaka. Japan). Plasma insulin concentrations (with rat and porcine insulin standards) were measured by radioimmunoassay (RIA). Plasma adiponectin concentrations were measured by RIA (Linco Inc., Austin, Tex., USA). Liver triglycerides were measured as described (Muse et al., 2004).
Calculations. Statistical analysis was done by unpaired Student's t test or analysis of variance as appropriate. Data are presented as means±SEM. All values were collapsed into a single value for each animal prior to the calculation of mean. The time period 180-240 min was averaged for the basal and the time period 300-360 min was averaged for the clamp conditions.

high fat-fed rats [3] = assay: Central glucose or lactate in regular chow vs 3-day high fat diet-fed animals: glucose production; assay type: in vivo, rat; conditions: central administration
Source text: The latter is an excellent model for diet-induced insulin resistance.

high fat-fed rats [4] = assay: ICV glucose or lactate in high fat-fed rats: plasma triglycerides and VLDL secretion; assay type: in vivo, rat
Protocol: High fat feeding. Male Sprague-Dawley rats were fed a highly palatable high fat diet for three days. These rats developed hyperinsulinemia and hepatic insulin resistance (Morgan et al., 2004). […] In a separate set of studies, lipoprotein secretion studies were performed at the beginning of the ICV infusions.

conscious rats [5] = assay: Intravenous lactate infusion with or without MBH oxamate: plasma TG and hepatic TG-VLDL production; assay type: in vivo, rat
Protocol: as §1
VLDL are decreased in the hours following an acute bout of exercise. […] To investigate the mechanism by which lactate lowers plasma TG levels, the rate of production of hepatic TG-enriched VLDL was measured.

hepatic VLDL secretion = assay: Lipoprotein (VLDL) secretion studies with tyloxapol; NMR particle size; assay type: in vivo, rat; conditions: increased central metabolism of lactate to pyruvate, rats (Example 3)
Protocol: Lipoproteins secretion and particles concentration and size measurements. Tyloxapol (600 mg/kg; ˜1 min) was intravenously injected to inhibit endogenous lipoprotein lipase. This high dose of tyloxapol ensured complete inhibition of triglyceride clearance during VLDL secretion studies. Plasma samples were taken every 30 min for triglycerides analysis and for lipoprotein profiling. Plasma VLDL particles concentration and size were determined by nuclear magnetic resonance spectroscopy (lipoprofile-II test) at Liposcience as previously described (Otvos et al., 1991; 1992). This NMR lipoprofile-II test is based on the assumption that each plasma lipoprotein particle of a particular size gives its own characteristic lipid NMR signal. The intensity of the signal is also in proportion to the concentration of the particle. The diameter range for large, medium and small VLDL is >60 nm, 35-60 nm, and 27-35 nm, respectively.
Selective hepatic branch vagotomy. The surgeries were performed as described (Lam et al., 2005c).
Treatment with SCD1 ASO. Five and two days before the lipoprotein secretion studies, rats received a single intra-peritoneal injection of either SCD1 or scrambled (SCR) ASO (100 mg/kg of body weight). […] In a separate set of studies, rats received intra-portal injection of either SCD1 or SCR ASO (40 mg/kg of body weight) (Gutierrez-Juarez et al., 2006) three days before the lipoprotein secretion studies.
Portal oleate infusion. Chronic portal catheter was implanted and 7 days were allowed for rat recovery. Oleic acid (45 mM; dissolved in 45% HBP) was infused at a rate of 40 μl/h for 2.5 h (1 h before the 90 min lipoprotein secretion studies). This dose enabled the reconstitution of hepatic oleyl-CoA levels back to normal during portal SCD1 ASO (FIG. 11c) or ICV glucose studies (FIG. 11d).

## C[C@H](O)C(=O)O [lactate, L-lactate]
rats; central administration
  food intake overnight: inhibits food intake overnight
rats; the day following ICV injection
  decrease in food intake: ~40%
Conscious rats [1]; central (ICV) administration
  circulating glucose levels: sufficient to markedly diminish circulating glucose levels; also recorded: lowered circulating glucose levels
Conscious rats [1]; central administration
  gluconeogenesis and glycogenolysis: inhibited gluconeogenesis and glycogenolysis
  liver glucose production, G6Pase flux and mRNA: reduced liver glucose production, G6Pase flux and mRNA
Conscious rats [1]; four hour ICV infusion 5 μl/h (glucose 2 mM, lactate 5 mM), control 150±4
  plasma glucose concentrations: 129 ± 3 mg/dL
Conscious rats [1]; pancreatic basal insulin clamps, central administration
  exogenous glucose infusion rate required to maintain euglycemia: increased exogenous glucose infusion rate
Conscious rats [1]; pancreatic clamps, plasma glucose and insulin at basal, ICV infusion, control 10.4±0.1 (glucose), 11.7±0.6 (lactate)
  GP (glucose production): 6.5 ± 0.6 mg/kg/min
Conscious rats [2]; intravenous infusion of lactate alone
  glucose infusion kinetics: did not affect glucose infusion kinetics
Conscious rats [2]; intravenous infusion of lactate
  elevation of plasma lactate: ~3 fold
Male Sprague-Dawley rats; ICV infusion
  plasma free fatty acids levels: did not affect plasma free fatty acids levels
Male Sprague-Dawley rats; ICV infusion (glucose 2 mM, L-lactate 5 mM)
  plasma triglyceride levels: markedly decreased plasma triglycerides levels
Male Sprague-Dawley rats; increased central metabolism of lactate to pyruvate, rats (Example 3)
  suppression of plasma TG levels: ~50%
High fat-fed rats [3]; 3-day high fat diet-fed animals
  glucose production: entirely preserved; also recorded: lowered glucose production
High fat-fed rats [3]; regular chow animals
  glucose production: lowered glucose production
High fat-fed rats [4]; HF rats, tyloxapol
  rate of appearance of VLDL-triglycerides in plasma: decreased the rate of appearance of VLDL-triglycerides in plasma to levels similar to those of SC rats
High fat-fed rats [4]; high fat-fed rats
  circulating levels of triglycerides: effectively lowered the circulating levels of triglycerides to levels similar to those of rats on a standard chow
Conscious rats [5]; i.v. lactate 100 μmol•kg-1•min-1, i.v. saline 0.28±0.09
  plasma TG levels: 0.11 ± 0.02 mM
Conscious rats [5]; i.v. lactate infusion, i.v. saline 0.059±0.003
  rate of production of hepatic TG-enriched VLDL: 0.041 ± 0.002 mM/min
Conscious rats [5]; i.v. lactate vs i.v. saline
  decrease in VLDL production: 31%
  lowering of plasma TG levels: > 50%
Conscious rats [5]; physiological increase in plasma lactate
  VLDL secretion: sufficient to inhibit VLDL secretion
Conscious rats [5]; ~two-fold increase in circulating lactate, basal and clamp conditions
  plasma triglyceride: significant decrease in plasma triglyceride in both conditions
Hepatic VLDL secretion
  suppression of hepatic TG-enriched VLDL production: ~40%
